Assay results from patent US20200407717A1, “METHODS OF MODULATING ANTISENSE ACTIVITY” (Ionis Pharmaceuticals, Inc., priority 2018, published 2020).
e = 2'-O-(2-methoxyethyl) (MOE); d = 2'-deoxy (DNA)

Experiments:
[1] = test system: EGF-EGFR signaling; assay: EGFR signaling western blot (p-EGFR, p-ERK), A431 cells; type: cell-based; details: 2 μM for 16 hours
Description: In order to test the effects of a PS-ASO on EGFR signaling, A431 cells were incubated with compound no. 116847 or no PS-ASO compound for 16 hours. All cells were then treated with EGF prior to being subjected to the pulse-chase protocol described above. Cell lysates were run on a SDS-PAGE gel and analyzed by sequential western blot for phosphorylated EGFR (P-EGFR), total EGFR (T-EGFR), phosphorylated ERK (P-ERK), and total ERK (T-ERK) using the antibodies described above for EGFR, 4370 for P-ERK (Cell Signaling Technology), and 4695 for T-ERK (Cell Signaling Technology).
110080, 25690, 25699, 395251, or 395254 at 2 μM for 16 hours prior to carrying out the pulse-chase experiment described above.

[2] = test system: Malat1 RNA; assay: Antisense activity by RT-qPCR, Malat1, A431 cells; type: cell-based
Description: A431 cells were grown at 10,000 cells per well and pre-treated with a variety of growth factors to determine if the addition of exogenous growth factors affects antisense activity or uptake of modified antisense oligonucleotides in a cell. The growth factors used were EGF, insulin growth factor (IGF), transforming growth factor (TGF), […] (VEGF), hepatocyte growth factor (HGF), platelet growth factor (PGF) and fibroblasts growth factor (FGF). To test antisense activity, cells were treated for 4 hours with a growth factor or vehicle alone, and then treated with compound no. 25690 (complementary to Drosha), compound no. 395254 (complementary to Malat1), or vehicle alone. RNA was isolated from the cells and Drosha or Malat1 RNA levels were measured by RT-qPCR. Human primer probe set 13816 (forward sequence […], designated herein as SEQ ID NO: 3; reverse sequence […], designated herein as SEQ ID NO: 4; probe sequence […], designated herein as SEQ ID NO: 5) was used to measure Drosha mRNA levels and primer probe set RTS2736 (forward sequence […], designated herein as SEQ ID NO: 6; reverse sequence […], designated herein as SEQ ID NO: 7; probe sequence TGCCACATCGCCACCCCGT, designated herein as SEQ ID NO: 8) was used to measure Malat1 RNA levels. Drosha and Malat1 RNA levels were normalized to total RNA content, as measured by RIBOGREEN®. Results are presented in the tables below as normalized RNA levels, relative to untreated control cells.
A431 cells were treated with EGF or TGF at 200 ng/mL in the presence or absence of 1 μM of the EGFR tyrosine kinase inhibitor PD174265. The cells were then treated with compound no. 25690 or compound no. 395254 as in Example 8. Total RNA was isolated and analyzed by RT-qPCR, as in Example 8.
Following siRNA treatment, cells were treated with compound no. 25690 or compound no. 395254 in the presence or absence of EGF. 16 hours after treatment with a PS-ASO with or without EGF, cells were harvested, and RNA levels were analyzed via RT-qPCR as in Example 8.

Sequence: GGCATATGCAGATAATGTTC (sugars from the 5' end e5 d10 e5, all phosphorothioate, methylation of C not given here) [compound 395254]
- EGFR signaling [1]: not be impacted
- Malat1 RNA (% Control) ([2]; 2.0 nM, Control): 100.0 % Control
- Malat1 RNA (% Control) ([2]; 2.0 nM, Control Luciferase siRNA): 100.0 % Control
- Malat1 RNA (% Control) ([2]; 2.0 nM, Control Luciferase siRNA, Table 27): 100 % Control
- Malat1 RNA (% Control) ([2]; 2.0 nM, Control luciferase + EGF): 100 % Control
- Malat1 RNA (% Control) ([2]; 2.0 nM, Control, Table 21): 100.0 % Control
- Malat1 RNA (% Control) ([2]; 2.0 nM, EGF): 100.0 % Control
- Malat1 RNA (% Control) ([2]; 2.0 nM, EGFR siRNA-1): 100.0 % Control
- Malat1 RNA (% Control) ([2]; 2.0 nM, EGFR siRNA-2): 100.0 % Control
- Malat1 RNA (% Control) ([2]; 2.0 nM, EGFR siRNA-2 + EGF): 100 % Control
- Malat1 RNA (% Control) ([2]; 2.0 nM, EGFR siRNA-2, Table 27): 100 % Control
- Malat1 RNA (% Control) ([2]; 2.0 nM, TGF): 100.0 % Control
- Malat1 RNA (% Control) ([2]; 2.0 nM, TGF+PD174265): 100.0 % Control
- Malat1 RNA (% Control) ([2]; 2.0 nM, TGF, Table 21): 100.0 % Control
- Malat1 RNA (% Control) ([2]; 3.9 nM, Control): 109.0 % Control
- Malat1 RNA (% Control) ([2]; 3.9 nM, Control Luciferase siRNA): 72.7 % Control
- Malat1 RNA (% Control) ([2]; 3.9 nM, Control Luciferase siRNA, Table 27): 110.2 % Control
- Malat1 RNA (% Control) ([2]; 3.9 nM, Control luciferase + EGF): 108.2 % Control
- Malat1 RNA (% Control) ([2]; 3.9 nM, Control, Table 21): 110.2 % Control
- Malat1 RNA (% Control) ([2]; 3.9 nM, EGF): 76.0 % Control
- Malat1 RNA (% Control) ([2]; 3.9 nM, EGFR siRNA-1): 108.4 % Control
- Malat1 RNA (% Control) ([2]; 3.9 nM, EGFR siRNA-2): 90.4 % Control
- Malat1 RNA (% Control) ([2]; 3.9 nM, EGFR siRNA-2 + EGF): 108.2 % Control
- Malat1 RNA (% Control) ([2]; 3.9 nM, EGFR siRNA-2, Table 27): 105.2 % Control
- Malat1 RNA (% Control) ([2]; 3.9 nM, TGF): 99.9 % Control
- Malat1 RNA (% Control) ([2]; 3.9 nM, TGF+PD174265): 108.2 % Control
- Malat1 RNA (% Control) ([2]; 3.9 nM, TGF, Table 21): 105.2 % Control
- Malat1 RNA (% Control) ([2]; 7.8 nM, Control): 127.0 % Control
- Malat1 RNA (% Control) ([2]; 7.8 nM, Control Luciferase siRNA): 81.9 % Control
- Malat1 RNA (% Control) ([2]; 7.8 nM, Control Luciferase siRNA, Table 27): 99.3 % Control
- Malat1 RNA (% Control) ([2]; 7.8 nM, Control luciferase + EGF): 91.2 % Control
- Malat1 RNA (% Control) ([2]; 7.8 nM, Control, Table 21): 99.3 % Control
- Malat1 RNA (% Control) ([2]; 7.8 nM, EGF): 98.1 % Control
- Malat1 RNA (% Control) ([2]; 7.8 nM, EGFR siRNA-1): 103.1 % Control
- Malat1 RNA (% Control) ([2]; 7.8 nM, EGFR siRNA-2): 85.1 % Control
- Malat1 RNA (% Control) ([2]; 7.8 nM, EGFR siRNA-2 + EGF): 99.2 % Control
- Malat1 RNA (% Control) ([2]; 7.8 nM, EGFR siRNA-2, Table 27): 105.2 % Control
- Malat1 RNA (% Control) ([2]; 7.8 nM, TGF): 101.8 % Control
- Malat1 RNA (% Control) ([2]; 7.8 nM, TGF+PD174265): 91.2 % Control
- Malat1 RNA (% Control) ([2]; 7.8 nM, TGF, Table 21): 105.2 % Control
- Malat1 RNA (% Control) ([2]; 15.6 nM, Control): 125.6 % Control
- Malat1 RNA (% Control) ([2]; 15.6 nM, Control Luciferase siRNA): 61.0 % Control
- Malat1 RNA (% Control) ([2]; 15.6 nM, Control Luciferase siRNA, Table 27): 87.2 % Control
- Malat1 RNA (% Control) ([2]; 15.6 nM, Control luciferase + EGF): 67.2 % Control
- Malat1 RNA (% Control) ([2]; 15.6 nM, Control, Table 21): 77.2 % Control
- Malat1 RNA (% Control) ([2]; 15.6 nM, EGF): 96.4 % Control
- Malat1 RNA (% Control) ([2]; 15.6 nM, EGFR siRNA-1): 98.4 % Control
- Malat1 RNA (% Control) ([2]; 15.6 nM, EGFR siRNA-2): 82.5 % Control
- Malat1 RNA (% Control) ([2]; 15.6 nM, EGFR siRNA-2 + EGF): 99.2 % Control
- Malat1 RNA (% Control) ([2]; 15.6 nM, EGFR siRNA-2, Table 27): 97.2 % Control
- Malat1 RNA (% Control) ([2]; 15.6 nM, TGF): 93.2 % Control
- Malat1 RNA (% Control) ([2]; 15.6 nM, TGF+PD174265): 77.2 % Control
- Malat1 RNA (% Control) ([2]; 15.6 nM, TGF, Table 21): 107.2 % Control
- Malat1 RNA (% Control) ([2]; 31.3 nM, Control): 120.2 % Control
- Malat1 RNA (% Control) ([2]; 31.3 nM, Control Luciferase siRNA): 47.0 % Control
- Malat1 RNA (% Control) ([2]; 31.3 nM, Control Luciferase siRNA, Table 27): 76.3 % Control
- Malat1 RNA (% Control) ([2]; 31.3 nM, Control luciferase + EGF): 58.7 % Control
- Malat1 RNA (% Control) ([2]; 31.3 nM, Control, Table 21): 66.3 % Control
- Malat1 RNA (% Control) ([2]; 31.3 nM, EGF): 111.9 % Control
- Malat1 RNA (% Control) ([2]; 31.3 nM, EGFR siRNA-1): 67.4 % Control
- Malat1 RNA (% Control) ([2]; 31.3 nM, EGFR siRNA-2): 57.7 % Control
- Malat1 RNA (% Control) ([2]; 31.3 nM, EGFR siRNA-2 + EGF): 114.0 % Control
- Malat1 RNA (% Control) ([2]; 31.3 nM, EGFR siRNA-2, Table 27): 95.9 % Control
- Malat1 RNA (% Control) ([2]; 31.3 nM, TGF): 109.8 % Control
- Malat1 RNA (% Control) ([2]; 31.3 nM, TGF+PD174265): 68.7 % Control
- Malat1 RNA (% Control) ([2]; 31.3 nM, TGF, Table 21): 55.9 % Control
- Malat1 RNA (% Control) ([2]; 62.5 nM, Control): 109.6 % Control
- Malat1 RNA (% Control) ([2]; 62.5 nM, Control Luciferase siRNA): 33.2 % Control
- Malat1 RNA (% Control) ([2]; 62.5 nM, Control Luciferase siRNA, Table 27): 67.2 % Control
- Malat1 RNA (% Control) ([2]; 62.5 nM, Control luciferase + EGF): 54.2 % Control
- Malat1 RNA (% Control) ([2]; 62.5 nM, Control, Table 21): 57.2 % Control
- Malat1 RNA (% Control) ([2]; 62.5 nM, EGF): 85.9 % Control
- Malat1 RNA (% Control) ([2]; 62.5 nM, EGFR siRNA-1): 45.0 % Control
- Malat1 RNA (% Control) ([2]; 62.5 nM, EGFR siRNA-2): 43.6 % Control
- Malat1 RNA (% Control) ([2]; 62.5 nM, EGFR siRNA-2 + EGF): 79.7 % Control
- Malat1 RNA (% Control) ([2]; 62.5 nM, EGFR siRNA-2, Table 27): 77.2 % Control
- Malat1 RNA (% Control) ([2]; 62.5 nM, TGF): 91.4 % Control
- Malat1 RNA (% Control) ([2]; 62.5 nM, TGF+PD174265): 54.2 % Control
- Malat1 RNA (% Control) ([2]; 62.5 nM, TGF, Table 21): 47.2 % Control
- Malat1 RNA (% Control) ([2]; 125 nM, Control): 131.6 % Control
- Malat1 RNA (% Control) ([2]; 125 nM, Control Luciferase siRNA): 18.9 % Control
- Malat1 RNA (% Control) ([2]; 125 nM, Control Luciferase siRNA, Table 27): 44 % Control
- Malat1 RNA (% Control) ([2]; 125 nM, Control luciferase + EGF): 37.0 % Control
- Malat1 RNA (% Control) ([2]; 125 nM, Control, Table 21): 44.0 % Control
- Malat1 RNA (% Control) ([2]; 125 nM, EGF): 62.3 % Control
